Earlier results as cited in patent US20230048872A1, “COMPOSITIONS AND METHODS FOR DIAGNOSING OR TREATING NEUTROPHIL-MEDIATED INFLAMMATORY DISEASE” (THE BOARD OF TRUSTEES OF THE UNIVERSITY OF ILLINOIS, priority 2013, published 2023).

solubility in water: low
SMILES: Oc1cc(O)cc(/C=C/c2ccc(O)c(O)c2)c1 [Piceatannol, piceatannol]
